# From patent publication US20100152434A1, “Protein Kinase-binding Nucleosides and Associated Methods” (priority 2007, published 2010)
# Where two headings read alike, the source gives them in different places.
# Legend:
# [1] = system: IGROV1; test: cells; details: Homo sapiens, IGROV-1, 48 h
# [2] = system: HCT-15
# [3] = system: BT-549; test: cells; details: Homo sapiens, BT-549, 48 h
# [4] = system: SK-MEL-5
# [5] = system: HL-60(TB); test: cells; details: Homo sapiens, HL-60, 48 h
# [6] = system: OVCAR-8; test: cells; details: Homo sapiens, OVCAR-8, 48 h
# [7] = system: MALME-3M
# [8] = system: SK-MEL-5; test: cells; details: Homo sapiens, SK-MEL-5, 48 h
# [9] = system: BT-549
# [10] = system: A498
# [11] = system: NCI-H23; test: cells; details: Homo sapiens, NCI-H23, 48 h
# [12] = system: HCC-2998; test: cells; details: Homo sapiens, HCC 2998, 48 h
# [13] = system: SNB-19
# [14] = system: EKVX; test: cells; details: Homo sapiens, 48 h
# [15] = system: CCRF-CEM; test: cells; details: Homo sapiens, 48 h
# [16] = system: OVCAR-5
# [17] = system: SR
# [18] = system: PC-3
# [19] = system: RXF 393; test: cells; details: Homo sapiens, RXF 393, 48 h
# [20] = system: NCI-H460; test: cells; details: Homo sapiens, NCI-H460, 48 h
# [21] = system: MDA-MB-435; test: cells; details: Homo sapiens, MDA-MB-435, 48 h
# [22] = system: CAKI-1
# [23] = system: SK-MEL-2; test: cells; details: Homo sapiens, SK-MEL-2, 48 h
# [24] = system: K-562; test: cells; details: Homo sapiens, K562, 48 h
# [25] = system: UACC-257
# [26] = system: NCI-H522
# [27] = system: SF-268
# [28] = Log10 Concentration −4.0, Molar
# [29] = Log10 Concentration −5.0, Molar
# [30] = Log10 Concentration −6.0, Molar
# [31] = Log10 Concentration −7.0, Molar
# [32] = Log10 Concentration −8.0, Molar
smiles,measurement,setting,value
CCOC(=O)C[C@@H]1C(O[Si](C)(C)C(C)(C)C)[C@H](n2cnc3c(NC(=O)Nc4ccccc4)ncnc32)O[C@@H]1CNC(=O)NC (stereo partly shown) [Compound 10],GI50,[1],3.85 µM
same,CC50,[1]; read-out: LC50,79.2 µM
same,TGI,[2]; 48 h,>1.00E−4 Molar
same,Percent Growth,[2]; [28],43%
same,Percent Growth,[2]; [29],47%
same,Percent Growth,[2]; [30],94%
same,Percent Growth,[2]; [31],96%
same,Percent Growth,[2]; [32],99%
same,GI50,[3],> 100 µM
same,CC50,[3]; read-out: LC50,> 100 µM
same,TGI,[4]; 48 h,>1.00E−4 Molar
same,Percent Growth,[4]; [28],11%
same,Percent Growth,[4]; [29],28%
same,Percent Growth,[4]; [30],89%
same,Percent Growth,[4]; [31],100%
same,Percent Growth,[4]; [32],96%
same,GI50,[5],3.01 µM
same,CC50,[5]; read-out: LC50,> 100 µM
same,GI50,[6],4.92 µM
same,CC50,[6]; read-out: LC50,> 100 µM
same,TGI,[7]; 48 h,>1.00E−4 Molar
same,Percent Growth,[7]; [28],17%
same,Percent Growth,[7]; [29],50%
same,Percent Growth,[7]; [30],92%
same,Percent Growth,[7]; [31],95%
same,Percent Growth,[7]; [32],104%
same,GI50,[8],4.34 µM
same,CC50,[8]; read-out: LC50,> 100 µM
same,TGI,[9]; 48 h,>1.00E−4 Molar
same,Percent Growth,[9]; [28],51%
same,Percent Growth,[9]; [29],67%
same,Percent Growth,[9]; [30],110%
same,Percent Growth,[9]; [31],109%
same,Percent Growth,[9]; [32],104%
same,TGI,[10]; 48 h,1.71E−5 Molar
same,Percent Growth,[10]; [28],−41%
same,Percent Growth,[10]; [29],13%
same,Percent Growth,[10]; [30],91%
same,Percent Growth,[10]; [31],92%
same,Percent Growth,[10]; [32],95%
same,GI50,[11],33.3 µM
same,CC50,[11]; read-out: LC50,> 100 µM
same,GI50,[12],> 100 µM
same,CC50,[12]; read-out: LC50,> 100 µM
same,TGI,[13]; 48 h,>1.00E−4 Molar
same,Percent Growth,[13]; [28],12%
same,Percent Growth,[13]; [29],82%
same,Percent Growth,[13]; [30],87%
same,Percent Growth,[13]; [31],95%
same,Percent Growth,[13]; [32],92%
same,GI50,[14],17.7 µM
same,CC50,[14]; read-out: LC50,> 100 µM
same,GI50,[15],6.69 µM
same,CC50,[15]; read-out: LC50,> 100 µM
same,TGI,[16]; 48 h,>1.00E−4 Molar
same,Percent Growth,[16]; [28],27%
same,Percent Growth,[16]; [29],72%
same,Percent Growth,[16]; [30],95%
same,Percent Growth,[16]; [31],103%
same,Percent Growth,[16]; [32],104%
same,TGI,[17]; 48 h,7.07E−6 Molar
same,Percent Growth,[17]; [28],−34%
same,Percent Growth,[17]; [29],−15%
same,Percent Growth,[17]; [30],85%
same,Percent Growth,[17]; [31],70%
same,Percent Growth,[17]; [32],82%
same,TGI,[18]; 48 h,4.85E−6 Molar
same,Percent Growth,[18]; [28],−77%
same,Percent Growth,[18]; [29],−47%
same,Percent Growth,[18]; [30],103%
same,Percent Growth,[18]; [31],126%
same,Percent Growth,[18]; [32],121%
same,GI50,[19],2010 nM
same,CC50,[19]; read-out: LC50,19.5 µM
same,GI50,[20],5.54 µM
same,CC50,[20]; read-out: LC50,> 100 µM
same,GI50,[21],6.21 µM
same,CC50,[21]; read-out: LC50,> 100 µM
same,TGI,[22]; 48 h,>1.00E−4 Molar
same,Percent Growth,[22]; [28],7%
same,Percent Growth,[22]; [29],88%
same,Percent Growth,[22]; [30],99%
same,Percent Growth,[22]; [31],95%
same,Percent Growth,[22]; [32],88%
same,GI50,[23],5.42 µM
same,CC50,[23]; read-out: LC50,> 100 µM
same,GI50,[24],3.59 µM
same,CC50,[24]; read-out: LC50,> 100 µM
same,TGI,[25]; 48 h,>1.00E−4 Molar
same,Percent Growth,[25]; [28],9%
same,Percent Growth,[25]; [29],34%
same,Percent Growth,[25]; [30],99%
same,Percent Growth,[25]; [31],102%
same,Percent Growth,[25]; [32],102%
same,TGI,[26]; 48 h,8.57E−5 Molar
same,Percent Growth,[26]; [28],−2%
same,Percent Growth,[26]; [29],32%
same,Percent Growth,[26]; [30],83%
same,Percent Growth,[26]; [31],85%
same,Percent Growth,[26]; [32],89%
same,TGI,[27]; 48 h,2.70E−5 Molar
same,Percent Growth,[27]; [28],−53%
same,Percent Growth,[27]; [29],40%
same,Percent Growth,[27]; [30],93%
same,Percent Growth,[27]; [31],103%
same,Percent Growth,[27]; [32],102%
